Measurements from patent US8354265B2, “Chemicals promoting the growth of N-acylhomoserine lactone-degrading bacteria” (Centre National de la Recherche Scientifique, priority 2007, dated 2013).
Entries after “also recorded” stand apart in the source; their conditions may differ.

Experiments:
[1] = test system: bacteria recovered from the consortia; experiment: NAHL production and inactivation by isolates recovered from the consortia, with rrs identification; assay type: cell-based; conditions: for NAHL-producing bacteria among isolates of the consortia: 280 isolates from 280 independent enrichments
[2] = test system: Erwinia carotovora subsp. atroseptica 6276; experiment: Maceration assay on potato tubers (biocontrol activity of consortia); assay type: in vivo; conditions: potato tubers infected with mix of Erwinia carotovora 6276 and consortia
Excerpt: FIG. 6: Maceration assay on potato tubers.
(§1) The Mannitol-, 6CL-, GCL-, and HTN-consortia were compared for their capacity to inactivated OC8-HSL, the major NAHL produced by the plant pathogen Erwinia carotovora subsp. atroseptica 6276, as well as for their biocontrol activity against this pathogen in potato maceration assay.

[3] = test system: bacterial consortia from unplanted soil; experiment: C6-HSL inactivation by bacterial consortia enriched from unplanted soil on the compound as sole carbon source; assay type: cell-based; conditions: soil and rhizospheric samples; among 25 assayed molecules
[4] = test system: soil bacterial consortia; experiment: NAHL (C6-HSL, OC8-HSL) inactivation by soil consortia enriched on second set of compounds; assay type: cell-based; conditions: C6-HSL 25 μM or OC8-HSL 200 nM
Method: FIG. 4: Kinetics of NAHL inactivation by bacterial consortia. (A) NAHL is C6-HSL with an initial concentration of 25 μM (B) NAHL is 3-oxo-octanoylhomoserine lactone (OC8-HSL), with an initial concentration of 200 nM. The different bacterial consortia obtained after enrichment on the indicated compounds as a sole carbon source (mannitol is abbreviated as Man) were tested to for their capacity to inactivate NAHL signal. At each time (0, 1, 3 and 5 hrs), the uninoculated control (C) was used to estimate the percentage of residual NAHL.
Non sterile soil from the CNRS experimental field (Mérantaise) at Gif-sur-Yvette (France) was mixed with sterile sand Loire River and distributed into pots (20 cm in diameter). Some of them were sown with disinfected seeds of Nicotiana tabacum cv. Samson. Pots were randomly placed in the greenhouse (CNRS, Gif-sur-Yvette), under a long day conditions (16 h) at 17° C. (night) and 24° C. (day), and watered daily with tap water. One gram of unplanted or rhizospheric (3-months aged plants) soil was resuspended in 10 mL of sterile 0.8% NaCl. […] After a 3-days incubation at 25° C. under shaking (180 rpm), the cell cultures were diluted (1/50) into fresh AB media for an additional 2-days enrichment step. […]

[5] = test system: bacterial consortia originating from rhizospheric soil; experiment: C6-HSL inactivation by bacterial consortia enriched from rhizospheric soil; assay type: cell-based
[6] = test system: bacterial consortia; experiment: Inactivation of C6-HSL and OC8-HSL by mannitol, 6CL, GCL and HTN consortia; assay type: cell-based
Excerpt: as §1

[7] = test system: NAHL-degrading bacteria of potato rhizosphere; experiment: HTN treatment on planted batches (FIG. 9); assay type: in vivo, Solanum tuberosum
Excerpt: FIG. 9: Percentage of NAHL-degrading and NAHL-producing strains in potato rhizosphere after treatment with HTN. The percentage of NAHL degraders and NAHL producers was estimated among cultivable bacteria (cfu/g of fresh weight of roots), which were recovered from potato rhizospheres before the treatment (D0; white columns), 14 days (D14; dark grey columns), 28 days (D28; black columns) after the first treatment and 42 days after the first treatment, i.e., 14 days after the second treatment (D42; grey columns). The letters indicate statistically different values (Student's t-test; 0.05).
The non sterile batches (40×60×8 cm) contained 13 L of the nutritive solution Hydrobloom (Cellmax, UK) with Nitrogen at 0.80 g/L, Phosphore at 0.56 g/L and Potassium at 1.48 g/L as major components. The solution was diluted from a concentrated stock solution (×250) with non sterile water from the public water system. One hundred plants of Solanum tuberosum var. Allians, which were recovered from cultures performed under sterile conditions, were placed into holes (3 cm space to each other) of batch covers. […] Three samples were analyzed from each batch at each time D0, D14 and D28; from each sample, thirty isolates from TSA plates and thirty fluorescent isolates from King B plates were individually tested from production and inactivation of NAHL signal. […]

[8] = test system: NAHL-degrading rhizobacteria; experiment: Diversity of NAHL-degrading rhizobacteria after HTN treatments, rrs sequencing (Table 3); assay type: in vivo, Solanum tuberosum
Excerpt: (§2) The 5′-end of the rrs gene was amplified with primers pA (5′-[…]) (SEQ ID NO:1) and 518r (5′-[…]) (SEQ ID NO:2), and sequenced with pA primer by GenomeExpress (Meylan, France). At least 400 bp were submitted to the NCBI database. Although some sequence comparisons authorized identification of isolates at the species level, only the genus level was retained in this study for homogeneity.
To analyze the impact of HTN on the diversity of NAHL-degrading strains, 50 NAHL-degrading strains were sampled from the third set of experiments, at the beginning of the experiments (D0) and after 14 and 42 days. The isolates were identified by rrs-sequencing (Table 3). At D0, all of the 5 NAHL-degrading isolates analyzed were identified as Agrobacterium. However, at D14 and D42, the Rhodococcus isolates dominated in treated batches, in which Delftia and Sinorhizobium were also detected

[9] = test system: NAHL-degrading bacteria in the nutritive solution; experiment: Ratio of NAHL-degrading bacteria in unplanted batches of nutritive solution; assay type: cell-based; conditions: for percentage of NAHL-degrading bacteria in the nutritive solution: without plants
Method: (§3) The non sterile batches (40×60×8 cm) contained 13 L of the nutritive solution Hydrobloom (Cellmax, UK) with Nitrogen at 0.80 g/L, Phosphore at 0.56 g/L and Potassium at 1.48 g/L as major components. The solution was diluted from a concentrated stock solution (×250) with non sterile water from the public water system. One hundred plants of Solanum tuberosum var. Allians, which were recovered from cultures performed under sterile conditions, were placed into holes (3 cm space to each other) of batch covers. Planted batches were placed in the greenhouse (Comité Nord Plants de Pomme de Terre, Bretteville-du-Grand-Caux) under natural light at 10-15° C. (night) and 25-30° C. (day). […] An untreated batch was used as a control. One gram of roots (fresh weight) was resuspended in 10 mL of sterile MgSO4 10 mM, diluted and spread on TSA and King B plates to isolate total cultivable bacteria and fluorescent Pseudomonas, respectively. Three samples were analyzed from each batch at each time D0, D14 and D28; from each sample, thirty isolates from TSA plates and thirty fluorescent isolates from King B plates were individually tested from production and inactivation of NAHL signal.
(§4) Bacterial isolates grown in 96-microwell plates were individually tested from production of NAHL with the A. tumefaciens biosensor NT1 (pZNLR4) and the inactivation of the C6-HSL signal, as described previously (d'Angelo-Picard et al. 2004).
Allians was evaluated. The plants were cultivated in vitro under sterile conditions, then placed into batches in a greenhouse at Bretteville-du-Grand-Caux (France) in a non-sterile environment. Especially, a non-sterile nutritive solution was used and served as a source of naturally occurring bacteria. […] The ratio of NAHL-degrading bacteria in the nutritive solution was evaluated before the treatment and 14-day later. This percentage increased from 10±2 to 30±2 in the case of the 6CL-treated batch and from 10±2 to 70±2 in the GCL-treated batch. From the 6CL- and GCL-treated batches, 10 NAHL-degrading bacteria were identified by their rrs sequence: 9 belonged to the Delftia genus, the other one to the Rhodococcus genus.

[10] = test system: NAHL-degrading rhizobacteria of potato rhizosphere; experiment: Preliminary experiment in planted hydroponic batches: level and diversity of NAHL-degrading rhizobacteria (Table 1); assay type: in vivo, Solanum tuberosum var. Allians
Method: as §3, §4
At least 400 bp were submitted to the NCBI database.

[11] = test system: NAHL-degrading and NAHL-producing bacteria of potato rhizosphere; experiment: Two independent analyses of 6CL and GCL treatments on planted batches (FIG. 7); assay type: in vivo, Solanum tuberosum var. Allians
Excerpt: FIG. 7: Percentage of NAHL-degrading and NAHL-producing strains in potato rhizosphere. […] An untreated batch was used as a control in the two independent sets of experiments. The mean of three replicates is shown. Statistically different values (Student t test; 0.05) are noted by different letters.
as §3, §4
An untreated batch was used as a control.

[12] = test system: NAHL-degrading rhizobacteria; experiment: Diversity of NAHL-degrading rhizobacteria after 6CL and GCL treatments, rrs sequencing (Table 2); assay type: in vivo, Solanum tuberosum; conditions: D14 and D28; 0.1 mL/L
Method: as §3, §2
The isolates were identified by rrs-sequencing (Table 2). At D0, most of the NAHL-degrading isolates were identified as Delftia. However, at D14 and D28, the Agrobacterium isolates dominated in untreated batches, while they were not detected in the treated batches. In those, the more frequently counted bacteria were Delftia and Rhodococcus.

[13] = test system: young plants; conditions: in vivo
[14] = 6CL- and GCL-treated batches together, rrs sequence

SMILES: O=C1CCCO1 [GBL, gamma-butyrolactone]
- NAHL-producing bacteria among isolates of the consortia [1]: 12 % of the tested strains

SMILES: OC[C@@H](O)[C@@H](O)[C@H](O)[C@H](O)CO [Mannitol, mannitol, reference compound]
- NAHL-producing bacteria among isolates of the consortia [1]: 10 % of the tested strains
- biocontrol activity of the consortia against E. carotovora 6276 [2]: did not

SMILES: CCCCC1CCC(=O)O1 (centres unmarked) [GOL, gamma-octalactone]
- growth stimulation of NAHL-degrading bacteria after enrichment procedures [3]: stimulated the growth of NAHL-degrading bacteria
- efficiency for obtaining NAHL-degrading consortia (ranking) [4]: most efficient

SMILES: CCCC1CCC(=O)O1 (centres unmarked) [HTN, 4-heptanolide]
- growth stimulation of NAHL-degrading bacteria after enrichment procedures [3]: stimulated the growth of NAHL-degrading bacteria
- activity of consortia towards C6-HSL (ranking) [5]: the most active
- efficiency for obtaining NAHL-degrading consortia (ranking) [4]: most efficient
- NAHL-inactivating bacteria recovered from consortia [1]: recovered
- NAHL-producing bacteria among isolates of the consortia [1]: none
- NAHL-degrading isolates belonging to the Rhodococcus genus ([1]; HTN consortia, rrs sequence): All seventeen
- speed of C6-HSL signal inactivation versus Mannitol consortia [6]: inactivated more rapidly
- speed of OC8-HSL signal inactivation versus Mannitol consortia [6]: inactivated more rapidly
- biocontrol activity of the consortia against E. carotovora 6276 [2]: biocontrol activity was observed; also recorded: showed biocontrol activity
- ability to stimulate the growth of NAHL-degrading bacteria ([7]; 0.1 and 0.4 mL/L, second treatment at day 28, D14, D28, D42): confirmed the ability of HTN to stimulate the growth of NAHL-degrading bacteria
- percentage of NAHL-degrading bacteria among total cultivable bacteria ([7]; applied to hydroponic plant cultures (FIG. 9)): significant increase
- Rhodococcus isolates among NAHL-degrading isolates in treated batches ([8]; D14 and D42): dominated
- rrs-identified NAHL-degraders: Delftia ([8]; D 14 and D 42, 0.1 mL/L): 1
- rrs-identified NAHL-degraders: Rhodococcus ([8]; D 14 and D 42, 0.1 mL/L): 16
- rrs-identified NAHL-degraders: Rhodococcus ([8]; D 14 and D 42, 0.4 mL/L): 27
- rrs-identified NAHL-degraders: Sinorhizobium ([8]; D 14 and D 42, 0.4 mL/L): 1

SMILES: O=C1CCCCCO1 [6CL, 6-caprolactone, reference compound]
- growth stimulation of NAHL-degrading bacteria after enrichment procedures [3]: stimulated the growth of NAHL-degrading bacteria
- activity of consortia towards C6-HSL (ranking) [5]: the most active
- NAHL-inactivating bacteria recovered from consortia [1]: recovered
- NAHL-degrading isolates related to Chryseobacterium ([1]; 6CL and GCL consortia together): 10%
- NAHL-degrading isolates related to Delftia ([1]; 6CL and GCL consortia together): 80 % of the identified strains
- NAHL-degrading isolates related to Ralstonia ([1]; 6CL and GCL consortia together): 3%
- NAHL-degrading isolates related to Rhodococcus ([1]; 6CL and GCL consortia together): 7%
- NAHL-producing bacteria among isolates of the consortia [1]: none
- speed of C6-HSL signal inactivation versus Mannitol consortia [6]: inactivated more rapidly
- speed of OC8-HSL signal inactivation versus Mannitol consortia [6]: inactivated more rapidly
- biocontrol activity of the consortia against E. carotovora 6276 [2]: did not
- NAHL-degrading bacteria belonging to the Delftia genus (of 10 identified) [9, 14]: 9
- NAHL-degrading bacteria belonging to the Rhodococcus genus (of 10 identified) [9, 14]: one
- percentage of NAHL-degrading bacteria in the nutritive solution ([9]; 14-day after treatment at 1 mL/L): 30±2%
- percentage of NAHL-degrading bacteria in the nutritive solution ([9]; before the treatment): 10±2%
- increase of the ratio of NAHL-degrading bacteria ([10]; 0.1 mL/L, 28 days after amendment, planted batches): not
- Log CFU/gram of root (fresh weight) ([10]; D0 (before treatment)): 8.0 ± 7.6 Log CFU/gram of root (fresh we
- NAHL degraders (%) ([10]; D0 (before treatment)): 8.9 ± 1.5 %
- NAHL producers (%) ([10]; D0 (before treatment)): 7.8 ± 1.2%
- rrs-identified NAHL-degraders: Delftia ([10]; D0, of 8 isolates): 7
- rrs-identified NAHL-degraders: Pseudomonas ([10]; D0, of 8 isolates): 1
- Log CFU/gram of root (fresh weight) ([10]; D28, 0.1 mL/L): 10.5 ± 10.1 Log CFU/gram of root (fresh we
- NAHL degraders (%) ([10]; D28, 0.1 mL/L): 6.7 ± 1.7 %
- NAHL producers (%) ([10]; D28, 0.1 mL/L): 5.6 ± 0.6%
- identified genera of NAHL-degrading bacteria ([10]; D28, 0.1 mL/L): 3
- rrs-identified NAHL-degraders: Agrobacterium ([10]; D28, 0.1 mL/L, of 8 isolates): 4
- rrs-identified NAHL-degraders: Delftia ([10]; D28, 0.1 mL/L, of 8 isolates): 2
- rrs-identified NAHL-degraders: Pseudomonas ([10]; D28, 0.1 mL/L, of 8 isolates): 2
- specific effect on the NAHL-degrading bacteria of the rhizosphere ([11]; 0.1 mL/L): no specific effect
- proportion of NAHL-degrading bacteria ([11]; 0.1 mL/L, during all experiments): remained at a quite similar level
- modification of the ratio of NAHL-producing bacteria ([11]; 6CL 0.1 mL/L, GCL 0.1 and 0.4 mL/L, D14 and D28): no repeatable modification
- rrs-identified NAHL-degraders: Delftia [12]: 9
- rrs-identified NAHL-degraders: Others [12]: 2
- rrs-identified NAHL-degraders: Rhizobium [12]: 1
- rrs-identified NAHL-degraders: Rhodococcus [12]: 6
- sensitivity of young plants [13]: sensitive

SMILES: C1CCOC1 [THF, tetrahydrofurane]
- NAHL-inactivating bacteria recovered from consortia [1]: recovered
- NAHL-producing bacteria among isolates of the consortia [1]: 41 % of the tested strains

SMILES: OCC1CCCO1 (centres unmarked) [THA, tetrahydrofurfuryl alcohol]
- activity of consortia towards C6-HSL (ranking) [5]: the most active
- NAHL-inactivating bacteria recovered from consortia [1]: recovered
- NAHL-producing bacteria among isolates of the consortia [1]: 13 % of the tested strains
